Measured values: patent US20250099491A1, “PREVENTION OR TREATMENT OF CARDIOVASCULAR DISEASES WITH HIGH PENETRATION PRODRUGS OF ASPIRIN AND OTHER NSAIDS” (Techfields Inc., priority 2022, published 2025)

System: patients with ischemic strokes
Assay: Phase 2 clinical study of spray in patients with ischemic strokes
Assay type: in vivo, human
Settings: for LCCA (far-wall): Maximal IMT of left common carotid artery / LCCA (near-wall): Maximal IMT of left common carotid artery / LICA (far-wall): Maximal IMT of left internal carotid artery / LICA (near-wall): Maximal IMT of left internal carotid artery / RCCA (far-wall): Maximal IMT of right common carotid artery / RCCA (near-wall): Maximal IMT of right common carotid artery / RICA (far-wall): Maximal IMT of right internal carotid artery / RICA (near-wall): Maximal IMT of right internal carotid artery: ultrasonography
Description: Each patient enrolled in Group A was administered the investigational drug in a double-blind manner for 16 weeks starting between 3 and 60 days after the onset of stroke symptoms (Day 1 of the study). The patients and/or their caregivers were instructed how to apply the investigational drug accurately so that patients or their caregivers would administer 20 sprays/dose of either the investigational drug or placebo twice daily (approximately every 12 hours) for a total daily dose of 280 mg of investigational drug. The 20 sprays of investigational drug were administered as follows: 4 sprays around the neck, 2 sprays to the left shoulder, 2 sprays to the right shoulder, 6 sprays to the chest, 3 sprays to the left leg, and 3 sprays to the right leg. Each spray was sprayed on a different area of the skin to reach maximum absorption. The patient would wait for at least 5 minutes to dress after the last spray so that the skin became completely dry.
Patients were asked to return to the study site at Weeks 4, 8, 12, and 16 for efficacy and safety assessments. After the Week 16 assessments had been performed, patients would start the open-label period of the study the next day and receive active treatment in an open-label manner through the end of the study (EOS) at Week 32. That is, patients who were receiving active treatment would continue to receive active treatment, and patients who were receiving placebo would switch to active treatment for the remaining 16 weeks of the study. Patients would receive only 1 dose of investigational drug on the Week 16 visit day. Patients would return to the study site at Week 24 and Week 32 (EOS) for efficacy and safety assessments. An Early Termination visit would occur if the patient was discontinued from the study prematurely. Patients would have a follow-up visit approximately 14 days after the Early Termination visit or the Week 32 (EOS) visit.
The spray bottle deposits […] of spray solution and 7 mg 2-(diethylamino)ethyl acetoxybenzoate free base per spray on the skin. Subjects were to apply each spray to a different skin area around the neck, chest, legs and arms based on the randomized dose level assigned.
The treatment was administered twice daily (approximately every 12 hours) starting on Day 1 of the study through the Week 16 visit. Each spray was sprayed on a different area of the skin to reach maximum absorption.
Group A administered the 20 sprays of investigational drug as follows: 4 sprays around the neck, 2 sprays to the left shoulder, 2 sprays to the right shoulder, 6 sprays to the chest, 3 sprays to the left leg, and 3 sprays to the right leg twice daily for a total of 40 sprays (280 mg)/day. Each spray was sprayed on a different area of the skin to reach maximum absorption.
Group B administered the investigational drug as follows: 2 sprays to the front of the neck, 1 spray to the left side of the neck, 1 spray to the right side of the neck, 6 sprays to the chest close to the neck twice daily for a total of 20 sprays (140 mg)/day. Each spray was sprayed on a different area of the skin to reach maximum absorption.
Group C administered the investigational drug as follows: 1 spray to the front of the neck, 1 spray to the left side of the neck, 1 spray to the right side of the neck, 2 sprays to the chest twice daily for a total of 10 sprays (70 mg/day). Each spray was sprayed on a different area of the skin to reach maximum absorption.
The primary efficacy endpoint is the mRS score at Week 16 dichotomized as ‘success’ (0 to 2) or failure (>2) for all randomized patients at Week 16.
The mRS score was assessed at screening; Day 1 (baseline); Weeks 4, 8, 12, 16, 24, and 32; Early Termination Visit (if applicable) and Follow-Up Visit.
The mRS score measures the patient's functional level of activity and is dichotomized as a favorable outcome (score=0-2) versus unfavorable (score […]). […]

[1] = 5 Sprays (35 mg/dose bid), Baseline
[2] = 5 Sprays (35 mg/dose bid), Week 4
[3] = 5 Sprays (35 mg/dose bid), Week 8
[4] = 5 Sprays (35 mg/dose bid), Week 16
[5] = 5 Sprays (35 mg/dose bid), Week 24
[6] = 5 Sprays (35 mg/dose bid), Week 32
[7] = 5 Sprays (35 mg/dose bid), baseline
[8] = 10 Sprays (70 mg/dose bid), Baseline
[9] = 10 Sprays (70 mg/dose bid), Week 4
[10] = 10 Sprays (70 mg/dose bid), Week 8
[11] = 10 Sprays (70 mg/dose bid), Week 16

For `CCN(CC)CCOC(=O)c1ccccc1OC(C)=O.Cl` [Compound-1], the safety and tolerability (35 mg, 70 mg, and 140 mg BID, topical spray) was “safe and were generally well tolerated”, the “LCCA (far-wall): Maximal IMT of left common carotid artery” value (“LCCA (far-wall): Maximal IMT” for short) [1] was 6.2 ± 1.6 mm and the “LCCA (near-wall): Maximal IMT of left common carotid artery” value (shortened to “LCCA (near-wall): Maximal IMT”) [1] was 7.3 ± 2.0 mm. The “LICA (far-wall): Maximal IMT of left internal carotid artery” value (“LICA (far-wall): Maximal IMT” for short) [1] was 5.3 ± 1.3 mm, the “LICA (near-wall): Maximal IMT of left internal carotid artery” value (shortened to “LICA (near-wall): Maximal IMT”) [1] was 6.3 ± 2.1 mm and the “RCCA (far-wall): Maximal IMT of right common carotid artery” value (“RCCA (far-wall): Maximal IMT” for short) [1] was 7.1 ± 2.2 mm. For the same compound, the “RCCA (near-wall): Maximal IMT of right common carotid artery” value (shortened to “RCCA (near-wall): Maximal IMT”) [1] was 6.9 ± 2.1 mm, the “RICA (far-wall): Maximal IMT of right internal carotid artery” value (“RICA (far-wall): Maximal IMT” for short) [1] was 4.1 ± 1.4 mm and the “RICA (near-wall): Maximal IMT of right internal carotid artery” value (shortened to “RICA (near-wall): Maximal IMT”) [1] was 4.7 ± 1.5 mm. The “Modified Rankin Scale Score (mRS)” value [2] was 3.1 ± 0.5, the “National Institute of Health Stroke Scale” value (shortened to “National Institute”) [2] was 5.5 ± 1.7 and the “Modified Rankin Scale Score (mRS)” value [3] was 2.9 ± 0.3. For the same compound, the “National Institute” value [3] was 5.3 ± 1.5, the “Modified Rankin Scale Score (mRS)” value [4] was 2.7 ± 0.5 and the “National Institute” value [4] was 4.1 ± 1.0. For the same compound, the “LCCA (far-wall): Maximal IMT” value [4] was 2.7 ± 1.4 mm, the “LCCA (near-wall): Maximal IMT” value [4] was 2.3 ± 1.3 mm and the “LICA (far-wall): Maximal IMT” value [4] was 1.5 ± 1.1 mm. For the same compound, the “LICA (near-wall): Maximal IMT” value [4] was 1.6 ± 1.3 mm, the “RCCA (far-wall): Maximal IMT” value [4] was 2.5 ± 1.1 mm and the “RCCA (near-wall): Maximal IMT” value [4] was 2.1 ± 0.9 mm. The “RICA (far-wall): Maximal IMT” value [4] was 1.6 ± 0.9 mm, the “RICA (near-wall): Maximal IMT” value [4] was 1.5 ± 1.2 mm and the “Modified Rankin Scale Score (mRS)” value [5] was 2.5 ± 0.5. The “National Institute” value [5] was 3.4 ± 0.8, the “Modified Rankin Scale Score (mRS)” value [6] was 2.4 ± 0.5 and the “National Institute” value [6] was 2.9 ± 0.6. For the same compound, the “LCCA (far-wall): Maximal IMT” value [6] was 2.5 ± 0.7 mm, the “LCCA (near-wall): Maximal IMT” value [6] was 2.1 ± 0.7 mm and the “LICA (far-wall): Maximal IMT” value [6] was 1.3 ± 0.7 mm. The “LICA (near-wall): Maximal IMT” value [6] was 1.2 ± 1.0 mm, the “RCCA (far-wall): Maximal IMT” value [6] was 2.6 ± 0.9 mm and the “RCCA (near-wall): Maximal IMT” value [6] was 2.3 ± 0.8 mm. For the same compound, the “RICA (far-wall): Maximal IMT” value [6] was 1.1 ± 0.7 mm, the “RICA (near-wall): Maximal IMT” value [6] was 1.2 ± 0.6 mm and the “Modified Rankin Scale Score (mRS)” value [7] was 3.5 ± 0.5. For the same compound, the “National Institute” value [7] was 6.0 ± 2.2, the “LCCA (far-wall): Maximal IMT” value [8] was 7.1 ± 1.7 mm and the “LCCA (near-wall): Maximal IMT” value [8] was 7.0 ± 1.5 mm. For the same compound, the “LICA (far-wall): Maximal IMT” value [8] was 5.8 ± 1.5 mm, the “LICA (near-wall): Maximal IMT” value [8] was 6.1 ± 1.3 mm and the “RCCA (far-wall): Maximal IMT” value [8] was 7.9 ± 2.1 mm. For the same compound, the “RCCA (near-wall): Maximal IMT” value [8] was 7.2 ± 1.7 mm, the “RICA (far-wall): Maximal IMT” value [8] was 4.3 ± 1.5 mm and the “RICA (near-wall): Maximal IMT” value [8] was 5.1 ± 1.2 mm. For the same compound, the “Modified Rankin Scale Score (mRS)” value [9] was 2.5 ± 0.5, the “National Institute” value [9] was 4.9 ± 1.5 and the “Modified Rankin Scale Score (mRS)” value [10] was 2.0 ± 0.5. For the same compound, the “National Institute” value [10] was 3.7 ± 1.1, the “Modified Rankin Scale Score (mRS)” value [11] was 1.6 ± 0.5 and the “National Institute” value [11] was 2.3 ± 0.8. For the same compound, the “LCCA (far-wall): Maximal IMT” value [11] was 1.8 ± 0.7 mm, the “LCCA (near-wall): Maximal IMT” value [11] was 1.3 ± 0.7 mm and the “LICA (far-wall): Maximal IMT” value [11] was 0.7 ± 0.3 mm. For the same compound, the “LICA (near-wall): Maximal IMT” value [11] was 0.9 ± 0.5 mm, the “RCCA (far-wall): Maximal IMT” value [11] was 1.5 ± 0.6 mm and the “RCCA (near-wall): Maximal IMT” value [11] was 1.6 ± 0.8 mm. For the same compound, the “RICA (far-wall): Maximal IMT” value [11] was 0.8 ± 0.3 mm.
